The record followed here is ChEMBL document CHEMBL1152457, “Antimicrobial drug resistance of Salmonella enterica serovar typhi in asia and molecular mechanism of reduced susceptibility to the fluoroquinolones” (2007).

In assay [1] the test system is Salmonella enterica subsp. enterica. The assay is described as follows: Antimicrobial activity against Salmonella enterica Serovar Typhi isolate BL 21801 harboring DNA gyrase A S83F mutation by disk diffusion method in presence of plasmid mediated quinolone-resistant gene qnrA and qnrS. Format: functional, Salmonella enterica subsp. enterica serovar Typhi. (In general: A growth-free zone around the sample is the usual read-out of agar diffusion tests.)

The test system is the same in assay [2]. The assay is described as follows: Antimicrobial activity against Salmonella enterica Serovar Typhi isolate AG169 harboring DNA gyrase A S83F mutation by disk diffusion method. It counts as functional, Salmonella enterica subsp. enterica serovar Typhi.
The test system is the same in assay [3]. In words: Antimicrobial activity against Salmonella enterica Serovar Typhi isolate nar 108 harboring DNA gyrase A S83F mutation by disk diffusion method in presence of plasmid mediated quinolone-resistant gene qnrA and qnrS. Format: functional, Salmonella enterica subsp. enterica serovar Typhi.
Assay [4] shares this test system. In words: Antimicrobial activity against multidrug-resistant Salmonella enterica Serovar Typhi isolate CT61 harboring DNA gyrase A S83F mutation by disk diffusion method in presence of plasmid mediated quinolone-resistant gene qnrA and qnrS. It counts as functional, Salmonella enterica subsp. enterica serovar Typhi.
For assay [5] the test system is unchanged. In words: Antimicrobial activity against multidrug-resistant Salmonella enterica Serovar Typhi isolate CT118 harboring DNA gyrase A S83F mutation by disk diffusion method in presence of plasmid mediated quinolone-resistant gene qnrA and qnrS. Format: functional, Salmonella enterica subsp. enterica serovar Typhi.
Assay [6] has the same test system. The assay is described as follows: Antimicrobial activity against multidrug-resistant Salmonella enterica Serovar Typhi isolate DT42 harboring DNA gyrase A S83F mutation by disk diffusion method. It counts as functional, Salmonella enterica subsp. enterica serovar Typhi.
Assay [7] shares this test system. The assay is described as follows: Antimicrobial activity against multidrug-resistant Salmonella enterica Serovar Typhi isolate BL 3769 harboring DNA gyrase A S83F mutation by disk diffusion method in presence of plasmid mediated quinolone-resistant gene qnrA and qnrS. Format: functional, Salmonella enterica subsp. enterica serovar Typhi.
Assay [8] has the same test system. In words: Antimicrobial activity against multidrug-resistant Salmonella enterica Serovar Typhi isolate DT15 harboring DNA gyrase A S83F mutation by disk diffusion method. Format: functional, Salmonella enterica subsp. enterica serovar Typhi.
Assay [9] shares this test system. The assay is described as follows: Antimicrobial activity against multidrug-resistant Salmonella enterica Serovar Typhi isolate DT48 harboring DNA gyrase A S83F mutation by disk diffusion method. It counts as functional, Salmonella enterica subsp. enterica serovar Typhi.
For assay [10] the test system is unchanged. The assay is described as follows: Antimicrobial activity against multidrug-resistant Salmonella enterica Serovar Typhi isolate DT54 harboring DNA gyrase A S83F mutation by disk diffusion method. It counts as functional, Salmonella enterica subsp. enterica serovar Typhi.
Assay [11] shares this test system. The assay is described as follows: Antimicrobial activity against multidrug-resistant Salmonella enterica Serovar Typhi isolate AG176 harboring DNA gyrase A S83F mutation by disk diffusion method. It counts as functional, Salmonella enterica subsp. enterica serovar Typhi.
Assay [12] has the same test system. The assay is described as follows: Antimicrobial activity against Salmonella enterica Serovar Typhi isolate CT144 harboring DNA gyrase A D87G mutation by disk diffusion method in presence of plasmid mediated quinolone-resistant gene qnrA and qnrS. It counts as functional, Salmonella enterica subsp. enterica serovar Typhi.
Assay [13] has the same test system. In words: Antimicrobial activity against Salmonella enterica Serovar Typhi isolate CT142 harboring DNA gyrase A S83F mutation by disk diffusion method in presence of plasmid mediated quinolone-resistant gene qnrA and qnrS. It counts as functional, Salmonella enterica subsp. enterica serovar Typhi.
Assay [14] shares this test system. The assay is described as follows: Antimicrobial activity against multidrug-resistant Salmonella enterica Serovar Typhi isolate ipt 33 harboring DNA gyrase A S83F mutation by disk diffusion method. Format: functional, Salmonella enterica subsp. enterica serovar Typhi.
The test system is the same in assay [15]. The assay is described as follows: Antimicrobial activity against multidrug-resistant Salmonella enterica Serovar Typhi isolate AG8 harboring DNA gyrase A S83F mutation by disk diffusion method. Format: functional, Salmonella enterica subsp. enterica serovar Typhi.
Assay [16] has the same test system. The assay is described as follows: Antimicrobial activity against multidrug-resistant Salmonella enterica Serovar Typhi isolate DT18 harboring DNA gyrase A S83F and D87G mutation assessed as decrease in viable count at 8 times MIC after 4 hrs by time-kill analysis. Format: functional, organism-based.
Assay [17] has the same test system. In words: Antimicrobial activity against Salmonella enterica Serovar Typhi isolate CT144 harboring DNA gyrase A D87G mutation assessed as complete cell killing at 4 times MIC after 6 hrs by time-kill analysis. Format: functional, organism-based.
For assay [18] the test system is unchanged. The assay is described as follows: Antimicrobial activity against Salmonella enterica Serovar Typhi isolate CT144 harboring DNA gyrase A D87G mutation assessed as decrease in bacterial population at 4 times MIC after 30 mins by time-kill analysis. It counts as functional, organism-based.
Assay [19] has the same test system. The assay is described as follows: Antimicrobial activity against multidrug-resistant Salmonella enterica Serovar Typhi isolate HTD 798 harboring DNA gyrase A S83F mutation assessed as complete cell killing at 4 times MIC after 6 hrs by time-kill analysis. Format: functional, organism-based.
Assay [20] has the same test system. In words: Antimicrobial activity against multidrug-resistant Salmonella enterica Serovar Typhi isolate HTD 798 harboring DNA gyrase A S83F mutation assessed as decrease in bacterial population at 4 times MIC after 30 mins by time-kill analysis. It counts as functional, organism-based.
Assay [21] has the same test system. The assay is described as follows: Antimicrobial activity against multidrug-resistant Salmonella enterica Serovar Typhi isolate DT18 harboring DNA gyrase A S83F and D87G mutation assessed as decrease in viable count at 16 times MIC after 4 hrs by time-kill analysis. Format: functional, organism-based.
Assay [22] shares this test system. In words: Antimicrobial activity against Salmonella enterica Serovar Typhi isolate CT76 harboring wild type DNA gyrase A assessed as complete cell killing at 4 times MIC after 6 hrs by time-kill analysis. Format: functional, organism-based.
Assay [23] shares this test system. In words: Antimicrobial activity against Salmonella enterica Serovar Typhi isolate CT76 harboring wild type DNA gyrase A assessed as decrease in bacterial population at 4 times MIC after 30 mins by time-kill analysis. Format: functional, organism-based.
Assay [24] shares this test system. The assay is described as follows: Antimicrobial activity against Salmonella enterica Serovar Typhi isolate CT144 harboring DNA gyrase A D87G mutation assessed as decrease in viable count at 4 times MIC after 4 hrs by time-kill analysis. It counts as functional, organism-based.
The test system is the same in assay [25]. The assay is described as follows: Antimicrobial activity against Salmonella enterica Serovar Typhi isolate CT76 harboring wild type DNA gyrase A by time-kill analysis. It counts as functional, organism-based.
For assay [26] the test system is unchanged. The assay is described as follows: Antimicrobial activity against multidrug-resistant Salmonella enterica Serovar Typhi isolate HTD 798 harboring DNA gyrase A S83F mutation assessed as decrease in viable count at 4 times MIC after 4 hrs by time-kill analysis. Format: functional, organism-based.
Assay [27] shares this test system. The assay is described as follows: Antimicrobial activity against multidrug-resistant Salmonella enterica Serovar Typhi isolate HTD 798 harboring DNA gyrase A S83F mutation assessed as complete cell killing at 4 times MIC after 4 hrs by time-kill analysis. It counts as functional, organism-based.
Assay [28] has the same test system. The assay is described as follows: Antimicrobial activity against Salmonella enterica Serovar Typhi isolate CT144 harboring DNA gyrase A D87G mutation assessed as complete cell killing at 4 times MIC after 4 hrs by time-kill analysis. Format: functional, organism-based.
Assay [29] has the same test system. In words: Antimicrobial activity against multidrug-resistant Salmonella enterica Serovar Typhi isolate DT18 harboring DNA gyrase A S83F and D87G mutation assessed as decrease in viable count at 4 times MIC after 4 hrs by time-kill analysis. Format: functional, organism-based.

Converted amounts (≈) assume the structure as drawn. The source made the active and inactive calls. The rule behind the calls is not given here.

The term MIC denotes the lowest concentration that inhibits growth of the organism.

With `O=C(O)c1cn(C2CC2)c2cc(N3CCNCC3)c(F)cc2c1=O` [CIPROFLOXACIN], the MIC is 0.25 µg/mL in [1]; 0.38 µg/mL (≈ 1.15 µM) in [2]; 0.25 µg/mL in [3]; 0.125 µg/mL in assay [4]; 0.38 µg/mL in assay [5]; 0.5 µg/mL (≈ 1.51 µM) in assay [6]. Besides, the MIC in assay [7] is 0.25 µg/mL; in assay [8], 0.5 µg/mL (≈ 1.51 µM); in assay [9] it was 0.5 µg/mL (≈ 1.51 µM); in [10], 0.5 µg/mL (≈ 1.51 µM); in assay [11] it was 0.25 µg/mL (≈ 0.754 µM); in [12], 0.25 µg/mL. Further, the minimum inhibitory concentration (MIC) in assay [13] was 0.38 µg/mL; in assay [14], 0.5 µg/mL (≈ 1.51 µM); in assay [15], 0.5 µg/mL (≈ 1.51 µM).

On to `COc1c(N2CCNC(C)C2)c(F)cc2c(=O)c(C(=O)O)cn(C3CC3)c12` (centres undefined) [GATIFLOXACIN], for which the minimum inhibitory concentration (MIC) in [1] came out at 0.19 µg/mL; in assay [2] it was 0.13 µg/mL (≈ 0.346 µM); in assay [3], 0.125 µg/mL; in assay [4], 0.064 µg/mL; in assay [5], 0.094 µg/mL; in [6] it was 0.125 µg/mL (≈ 0.333 µM). Further, the MIC was found to be 0.19 µg/mL in [7]; 0.094 µg/mL (≈ 0.25 µM) in assay [8]; 0.125 µg/mL (≈ 0.333 µM) in assay [9]; 0.125 µg/mL (≈ 0.333 µM) in [10]; 0.09 µg/mL (≈ 0.24 µM) in [11]; 0.094 µg/mL in [12]. In addition, the MIC in [13] was 0.125 µg/mL; in assay [14], 0.125 µg/mL (≈ 0.333 µM); in assay [15], 0.19 µg/mL (≈ 0.506 µM). For the same molecule, the outcome in assay [16], in [17], in [18], in assay [19], in assay [20] and in [21] was Active. In addition, the result in assay [22] and in [23] was Active.

As for `CCn1cc(C(=O)O)c(=O)c2ccc(C)nc21` [NALIDIXIC ACID], the minimal inhibitory concentration (MIC) is > 256 µg/mL in assay [1]; > 256 µg/mL in assay [2]; 256 µg/mL in [3]; 256 µg/mL in assay [4]; > 256 µg/mL in assay [5]; > 256 µg/mL in [6]. Moreover, the MIC in [7], in assay [8], in assay [9], in [10], in [11] and in assay [12] was > 256 µg/mL throughout. The minimum inhibitory concentration (MIC) in assay [13] is > 256 µg/mL; in assay [14], 256 µg/mL (≈ 1100 µM); in assay [15] it was > 256 µg/mL.

Take `CC1COc2c(N3CCN(C)CC3)c(F)cc3c(=O)c(C(=O)O)cn1c23` (centres undefined) [OFLOXACIN]: the minimal inhibitory concentration (MIC) worked out at 0.5 µg/mL in assay [1]; 1 µg/mL (≈ 2.77 µM) in assay [2]; 1 µg/mL in [3]; 1 µg/mL in assay [4]; 1 µg/mL in assay [5]; 1 µg/mL (≈ 2.77 µM) in assay [6]. The MIC in [7] was found to be 0.5 µg/mL; in [8], 1 µg/mL (≈ 2.77 µM); in [9], 1 µg/mL (≈ 2.77 µM); in [10] it was 1 µg/mL (≈ 2.77 µM); in assay [11] it was 0.75 µg/mL (≈ 2.08 µM); in assay [12], 1 µg/mL. Further, the minimum inhibitory concentration (MIC) in [13] amounted to 1 µg/mL; in [14], 0.5 µg/mL (≈ 1.38 µM); in [15] it was 1.5 µg/mL (≈ 4.15 µM). Further, the result in [24], in assay [25] and in assay [26] was Active. Also, the outcome in [27], in [28] and in assay [29] was inactive.
